Data from patent US20130123287A1, “CONTROL AGENT FOR SOFT ROT AND CONTROL METHOD FOR THE SAME” (ISHIHARA SANGYO KAISHA, LTD., priority 2010, published 2013).

Legend:
[1] = test system: soft rot of Chinese cabbage; test: Test for controlling soft rot of Chinese cabbage, Example 1 / Comparative Example 1 (field, cultivar Muso); type: in vivo; details: 1/1000 dilution, 300 L/10a sprayed three times on stems and leaves, 54 days after start
Method: 200 g/l Azoxystrobin (Amistar 20 FLOWABLE [trade name], manufactured by Syngenta Japan K.K.) was adjusted to 250 g ai/10a (0.25 g/m^2, 1250 ml Product/10a) as the amount of the active ingredient and to 150 L/10a as the volume of diluent water.
100 g/l Cyazofamid (RANMAN FLOWABLE [trade name], manufactured by Ishihara Sangyo Kaisha, Ltd.) was adjusted to 250 g ai/10a (0.25 g/m^2, 2500 ml Product/10a) as the amount of the active ingredient and to 150 L/10a as the volume of diluent water.
177 g/l Amisulbrom (LEIMAY FLOWABLE [trade name], manufactured by Nissan Chemical Industries, Ltd.) was adjusted individually to 250 g ai/10a (0.25 g/m^2, 1412 ml Product/10a) as the amount of the active ingredient and to 150 L/10a as the volume of diluent water.
After spreading an agricultural mulch-sheet and opening planting holes (diameter of about 9 cm) for permanent planting through the mulch-sheet, the spray solutions prepared as described above were sprayed onto the planting holes such that the amount of treated active ingredient of each spray solution was 0.25 g/m^2 (150 L per 10a), followed by air-drying; subsequently, seedlings of Chinese cabbage (cultivar: Muso) grown for 4 weeks in cell mold trays (128 holes/nursery box) were planted such that 30 seedlings were planted in each test lot having an area of 6 m^2 with two replications.
Preparation was performed by diluting streptomycin (Mycin 20 wettable powder solution [under the trade name] manufactured by Hokko Chemical Industry Co., Ltd.) with water to 1/1000.
In a field spread with the agricultural mulch-sheet, Chinese cabbage seedlings (cultivar: Muso) grown by the same method as in Example 1 were planted by the same method as in Example 1, for spraying the spray solution of streptomycin prepared above in (1) (at each spray volume of 300 L/10a) three times (13 days, 20 days and 27 days after the planting of the seedlings) on the stems and leaves.
54 days after the start of the tests, all the plants in each lot were examined about the severity level of the disease; according to the following equations, the ratio of the plants with the onset of the disease, the frequency of the disease, and the disease control value were calculated to determine and rank the effects at A to D levels. Because soft rot is a disease with damages hardly controlled, herein, even a chemical at the level C determined by the tests of the effects can practically be used.
Ratio of the plants with the onset of the disease=(Number of plants with the onset of the disease/number of plants examined)*100
Frequency of the disease=[sigma(number of plants with the onset of the disease at each severity level*index of the onset of the disease)/(plants examined*4)]*100 […]

[2] = test system: bacteria causing the soft rot (Erwinia carotovora); test: Inhibition test of growth of bacteria causing soft rot, Reference Test Example 1; type: cell-based; details: for formed colonies (growth state), grade: PSA medium, 25 degrees Celsius, 4 days
Method: (§1) An inhibition test of the growth of bacteria causing the soft rot was done, when a control agent was directly applied to the bacteria causing the soft rot. A given volume of each pesticide of cyazofamid (RANMAN 400SC [trade name] manufactured by Ishihara Sangyo Kaisha, Ltd.), amisulbrom (LEIMAY FLOWABLE [trade name], manufactured by Nissan Chemical Industries, Ltd.) and streptomycin (Mycin Wettable powder [trade name] manufactured by Hokko Chemical Industry Co., Ltd.) was added together with a suspension of the bacteria causing the soft rot (Erwinia carotovora) to a preliminarily dissolved PSA culture medium (55 degrees Celsius) for subsequent thorough agitation, which was then spread on a plate for culturing at 25 degrees Celsius for 4 days, to examine the growth state. Subsequently, the formed colonies were examined according to the following three grades. • +: at the same level as the level of non-treated lot.
(§2) Plus or minus: apparently less than the colonies of the non-treated lot. • −: almost no colonies observed.

[3] = test system: bacteria causing the soft rot (Erwinia carotovora); test: Inhibition test of growth of bacteria causing soft rot, Reference Test Example 2; type: cell-based; details: for formed colonies (growth state), grade: PSA medium, 27 degrees Celsius, 2 days
Text: as §1, with “Inhibition test of growth of bacteria causing soft rot of potato An” for “An”, “azoxystrobin (Amistar-20” for “cyazofamid (RANMAN 400SC [trade name] manufactured by Ishihara Sangyo Kaisha, Ltd.), amisulbrom (LEIMAY”, “Syngenta Japan K.K.), penthiopyrad (GAIA WG [trade name], manufactured by Mitsui Chemicals Agro, Inc.), flusulfamide (SCABLOCK SC [trade name] manufactured by Mitsui Chemicals Agro, Inc.),” for “Nissan Chemical Industries, Ltd.)”, “27” for “25”, “2” for “4”
as §2

[4] = active ingredient concentration of 1 ppm

SMILES: [H]/N=C(/N)N[C@H]1[C@H](O)[C@@H](O)[C@H](O[C@@H]2O[C@@H](C)[C@](O)(C=O)[C@H]2O[C@@H]2O[C@@H](CO)[C@H](O)[C@@H](O)[C@@H]2NC)[C@@H](N/C(N)=N\[H])[C@@H]1O [Streptomycin]
- Determination of effect [1]: D (D: Poorly effective (20 or smaller disease control value))
- formed colonies (growth state), grade ([2]; 1 ppm active ingredient): −, −
- formed colonies (growth state), grade ([2]; 10 ppm active ingredient): −, −
- direct antibacterial activity against Erwinia carotovora (in words) [2, 4]: exerted a direct antibacterial activity
- formed colonies (growth state), grade ([3]; 1 ppm active ingredient): −, −
- formed colonies (growth state), grade ([3]; 10 ppm active ingredient): −, −
- direct antibacterial activity against Erwinia carotovora (in words) [3, 4]: exerted a direct antibacterial activity
